Results from publication PMC8411703 (Frontiers in Pharmacology, 2021).

Legend:
[1] = Description: This study was a prospective, multicentric, PK/PD study. It included pediatric patients who were admitted to the pediatric ICU between July 2017 and November 2019 at two hospitals in Santiago, Chile. The Ethical Committee for Research of Clinica Las Condes approved this prospective study (approval number: M012017) and required signed written informed consent from each patient’s parents. […] Neonates were excluded.
Meropenem was administered as a 3-h infusion with intravenous doses of 20–40 mg/kg every 8 or 12 h. […] Both antibiotics’ doses were adjusted according to renal function. Blood samples were collected at 1 and 3 h post-infusion and before the following dose for meropenem.
Unbound meropenem plasma concentrations were determined by high-performance liquid chromatography (Agilent Infinity 1,260, Santa Clara, United States) with a UV detector. The methodology was adapted to the equipment conditions from available publications ([Elkhaïli et al., 1996]; [McWhinney et al., 2010]; [Wolff et al., 2013]) and validated according to the recommendations of the Bioanalytical Method Validation Guidance for Industry ([U.S. Department of Health and Human Services, 2018]). The stationary phase was a Zorbax Eclipse Plus C18 column (3.5 μm, 75 × 4.6 mm) and the mobile phase was acetonitrile with 10 mM ammonium acetate (pH 4.0) (5:95, organic solvent:buffer initiallity) in gradient to minute 7(50:50, organic solvent:buffer). Meropenem was detected by UV detection at 298 nm. The flow rate was 1.0 ml/min. […] Standard curves were prepared in blank human plasma. […] Meropenem in plasma samples was quantified using the peak area of standard samples for calibrations.
For both analytes, the measurement was performed on the free-drug, non-protein bound fraction.
Pharmacokinetic modelling was performed using PMetrics 1.5.0 with RStudio 0.99.902 and digital compiler Gfortran 5.2. […] Primary pharmacokinetic parameters of CL and Vd for the central compartment were calculated. Elimination from the central compartment and inter-compartmental distribution were modelled as first-order processes. Inter-compartmental distribution was described as rate of transfer from the unbound compartment to a peripheral compartment (Kcp) and rate of transfer from a peripheral compartment to the unbound compartment (Kpc). […] Volume of the peripheral compartment (Vp) was calculated as (Vc*Kcp)/Kpc, where Vc is the volume of the central compartment. Total Vd was calculated as the sum of Vc and Vp.
We selected the final model on the basis of minimizing the Akaike Information Criterion (AIC) and likelihood of the nested models (-2*Log-likelihood, -2*LL), with both criteria penalized by the number of parameters in the model. A reduction of -2*LL as calculated within Pmetrics was used for statistical comparison of nested models. We also factored bias (mean weighted predicted-observed error) and imprecision (bias-adjusted, mean weighted squared predicted-observed error) and correlation co-efficient into the selection of the final model. Shrinkage was calculated as the percentage of total variance in each model probability distribution.
Covariate model building was performed using sequential assessment of biologically plausible clinical characteristics. Continuous data was used for all covariates tested, with the exception of gender, which was male/female. The association of the covariates versus parameters was assessed by regression with linear or non-linear associations able to be used in the covariate model testing with inclusion based upon biological plausibility and a statistically significant improvement in log-likelihood. Inclusion age (months), weight (kg), height (cm), gender, C-reactive protein (mg/L), albumin (g/L), total bilirubin (mg/dl), serum creatinine (mg/dl), 24-h hydric balance (ml).

Pseudomonas aeruginosa = conditions: in vivo
Experimental: For meropenem analysis, we used the plasma concentration at 1 h after the end of a 3-h infusion of the drug corresponding to a dosing interval of 50%.

[2] = in vivo; cited from earlier work
[3] = parameters: method as in Rybak, 2006; conditions: ref Rybak, 2006; cited from earlier work
[4] = pediatric ECMO patients, 11 PK profiles, population median

CL (clearance of meropenem), median ([1]; human, in vivo) [mL/min/kg] | Kcp (rate of transfer central to peripheral compartment), meropenem, mean ([1]; human, in vivo) [h⁻¹] | Kcp, meropenem, median ([1]; human, in vivo) [h⁻¹] | Kpc (rate of transfer peripheral to central compartment), meropenem, mean ([1]; human, in vivo) [h⁻¹] | Kpc, meropenem, median ([1]; human, in vivo) [h⁻¹] | Vc (central volume of distribution of meropenem), median ([1]; human, in vivo) [L/kg] | Vd (vc + vp), meropenem, mean ([1]; human, in vivo) [L/kg] | Vp (Vc*kcp/kpc), meropenem, mean ([1]; human, in vivo) [L/kg] | PK profiles achieving PK/PD target fT 50% > 4 x MIC (Pseudomonas aeruginosa) [%] | SMILES | meropenem clearance in most reported studies, range [2] [mL/min/kg] | Kcp (rate of transfer central to peripheral compartment), vancomycin, mean ([1]; pediatric ECMO patients, 11 PK profiles, population mean) [h⁻¹] | Kcp, vancomycin, median [1, 4] [h⁻¹] | Kpc, vancomycin, median [1, 4] [h⁻¹] | elimination route [3]
2.4 | 1.37 | 1.30 | 1.25 | 1.34 | 0.289 | 0.606 | 0.317 | 91 | C[C@@H](O)[C@H]1C(=O)N2C(C(=O)O)=C(S[C@@H]3CN[C@H](C(=O)N(C)C)C3)[C@H](C)[C@H]12 [meropenem] | 2.17 to 17.55 |  |  |  | 
 |  |  |  |  |  |  |  |  | CN[C@H](CC(C)C)C(=O)N[C@H]1C(=O)N[C@@H](CC(N)=O)C(=O)N[C@H]2C(=O)N[C@H]3C(=O)N[C@H](C(=O)N[C@H](C(=O)O)c4cc(O)cc(O)c4-c4cc3ccc4O)[C@H](O)c3ccc(c(Cl)c3)Oc3cc2cc(c3O[C@@H]2O[C@H](CO)[C@@H](O)[C@H](O)[C@H]2O[C@H]2C[C@](C)(N)[C@H](O)[C@H](C)O2)Oc2ccc(cc2Cl)[C@H]1O [vancomycin] |  | 0.483 | 0.481 | 0.286 | nearly completely renally eliminated
